Results from US10532066B2, “Surfactant lipids, compositions thereof, and uses thereof” (National Jewish Health, priority 2007, dated 2020).
Entries after “also recorded” stand apart in the source; their conditions may differ.

Experiments:
[1] = tested on: primary rat alveolar macrophages; test: LPS-induced NO production by rat alveolar macrophages; format: cell-based; conditions: LPS 10 ng/ml, 24 h, liposomes; LPS without phospholipid = 100%
Method: FIG. 1. Anionic phospholipids inhibit inflammatory mediator production induced by LPS. Liposomes composed of sphingomyelin (SM), phosphatidylethanolamine (PE) dipalmitoyl-phosphatidylcholine ((DPPC), phosphatidylserine (PS), palmitoyl-oleoyl-phosphatidylglycerol (POPG) and phosphatidylinositol (PI) were formed by bath-sonication for 30 min at room temperature. LPS (10 ng/ml) and different concentrations of phospholipids were added to monolayer cultures of differentiated U937 cells (A), or primary rat alveolar macrophages (B). At 6 h after stimulation, media were collected and secreted TNF-α levels were determined in U937 cultures. NO production was determined 24 h after stimulating rat alveolar macrophages. LPS stimulation in the absence of phospholipid was set as 100%. […] The average TNF-α production upon LPS stimulation was (8.0±0.54 ng/ml). The average NO production upon LPS stimulation was 12.17±0.27 μM.
FIG. 2. The inhibitory effect of phosphatidylglycerols on LPS-induced inflammatory mediator production is molecular species specific. PG liposomes were formed by bath-sonication for 30 min at room temperature. LPS (10 ng/ml) and different concentrations of PG were added to monolayer cultures of differentiated U937 cells (A) or rat alveolar macrophages (B). Media TNF-α measurements were performed 6 h after stimulation. Media NO measurements were performed 24 h after stimulation. LPS stimulation without PG was set at 100%. The molecular species of PG shown on the graph are 8:0; dioctanoyl-phosphatidylglycerol, 12:0; dilauroyl-phosphatidylglycerol (DLPG), 14:0; dimyristoyl-phosphatidylglycerol (DMPG), 16:0; dipalmitoyl-phosphatidylglycerol (DPPG), 18:0; distearoyl-phosphatidylglycerol, 16:0/18:1; palmitoyl-oleoyl-phosphatidylglycerol (POPG). […] The average TNF-α production upon LPS stimulation was 11.3±0.7 ng/ml. The average NO production upon LPS stimulation was 10.1±0.6 μM.
Rat alveolar macrophages were isolated from bronchoalveolar lavage fluid (BALF) of Sprague-Dawley rats. The lungs were lavaged with pyrogen-free saline, and alveolar macrophages were sedimented by centrifugation at 150×g×5 min. Isolated macrophages were plated at 5×10^5 cells/well in 24-well plates (Falcon) in RPMI 1640 medium containing 10% BGS. The cells were allowed to adhere for 2 h and then used for the experiments after washing with phosphate-buffered-saline (PBS) to remove the unattached cells.
Nitric oxide (NO) accumulation in the supernatant was determined as previously reported (28). Briefly, rat alveolar macrophages were stimulated with LPS (10 ng/ml) or LPS plus phospholipids for 24 h. Culture supernatants (usually […]) were combined with an equal volume of Greiss reagent, and the samples were incubated at room temperature for 10 min before the absorbance was quantified at 550 nm. With the use of a standard curve, the nmol of NO produced were determined and normalized to total cell number in each sample.

[2] = tested on: human alveolar macrophages; test: LPS-induced TNF-α production by primary human alveolar macrophages; format: cell-based; conditions: LPS 10 ng/ml, phospholipids 20 μg/ml, 6 h
Method: (§1) FIG. 8. POPG, DMPG and PI antagonize the effects of LPS on primary human alveolar macrophages. Human alveolar macrophages were isolated from healthy volunteer BALF and plated onto a 96-well plate. Two days after plating, 10 ng/ml of LPS and 20 μg/ml of phospholipids were added to monolayer cultures of human alveolar macrophages. 6 h after stimulation, media were collected and TNF-α production was determined by ELISA. LPS stimulation without phospholipid was set at 100%. […] The average TNF-α secretion after LPS stimulation was 30.7±15.1 ng/ml. Significance—**: p<0.01, when compared with LPS stimulation in the absence of POPG.
Human alveolar macrophages were isolated from BALF of healthy volunteers using protocols reviewed and approved by the National Jewish Medical Research Center IRB and the University of Colorado General Clinical Research Center. The lungs were lavaged with pyrogen-free saline, and alveolar macrophages were sedimented by centrifugation at 150×g×5 min. Isolated macrophages were plated at 5×10^4 cells/well in 96-well plates (Falcon) in RPMI 1640 medium containing 10% BGS. The cells were allowed to adhere for 48 h and then used for the experiments after washing with PBS to remove the unattached cells.
U937 cells were induced to differentiate by treatment with 10 nM phorbol myristate acetate (PMA) for 48 h. The cells (1.3×10^5/well) were placed in 96-well plates and further incubated in the absence of PMA for 24 h in RPMI 1640 medium containing 10% BGS. Rat alveolar macrophages (5×10^5/well) were incubated in 24-well plates for 2 h after isolation. The indicated concentration of phospholipids was added to the cultures 30 min before adding LPS. After LPS addition cultures were incubated for 6 h at 37° C. at an atmosphere of 95% air and 5% CO2. At the end of the incubation period the medium was collected and assayed for TNF-α concentrations using an ELISA kit.
as §1, with “Human” for “FIG. 8. POPG, DMPG and PI antagonize the effects of LPS on primary human alveolar macrophages. Human”, “phospholipids (POPG, DMPG and PI)” for “phospholipids”

[3] = tested on: differentiated U937 cells; test: LPS-induced TNF-α production by U937 cells in serum free media (without LBP); format: cell-based, human; conditions: for LPS-induced synthesis and secretion of TNF-α in serum free media: LPS 10 ng/ml, 6 h, without LBP; for potency as LPS antagonist without LBP: serum free media compared with serum
Method: U937 cells were induced to differentiate by incubation in medium containing 10 nM of phorbol myristate acetate (PMA) for 48 h. The cells (1.3×10^5/well) were placed on 96-well plates and further incubated in the absence of PMA for 24 h in RPMI 1640 medium containing 10% BGS. After the cells were washed with PBS, the indicated concentration of phospholipids was preincubated with the cells in RPMI without serum for 30 min before adding LPS. The indicated amount of LPS was then added into the well and incubated for 6 h at 37° C. with 5% CO2. The culture medium was collected and assayed for TNF-α secretion using an ELISA kit (Invitrogen).

Molecule | LPS-induced NO production [1] | LPS-induced TNF-α production [2] | LPS-induced TNF-α production ([2]; listed as dimyristoyl PG) | LPS-induced synthesis and secretion of TNF-α in serum free media [3] | potency as LPS antagonist without LBP [3]
CCCCCCCCCCCCCC(=O)OCC(COP(=O)(O)OCC(O)CO)OC(=O)CCCCCCCCCCCCC (centres unmarked) [DMPG, dimyristoyl-phosphatidylglycerol] | as potent as POPG | antagonize | markedly attenuate | still inhibited | continues to remain high
CCCCCCCCCCCCCCCC(=O)OC[C@H](COP(=O)([O-])OCC[N+](C)(C)C)OC(=O)CCCCCCCCCCCCCCC [DPPC, dipalmitoyl-phosphatidylcholine, reference compound] | no significant effect | no significant effect | – | – | –
CCCCCCCCCCCCCCCC(=O)OCC(COP(=O)(O)OCC(O)CO)OC(=O)CCCCCCCCCCCCCCC (centres unmarked) [DPPG, dipalmitoyl-phosphatidylglycerol, reference compound] | failed to antagonize | no significant effect | – | – | –
CCCCCCCC/C=C\CCCCCCCC(=O)O[C@H](COC(=O)CCCCCCCCCCCCCCC)COP(=O)(O)OCC(O)CO (some centres unmarked) [POPG, palmitoyl-oleoyl-phosphatidylglycerol] | significantly attenuated | markedly attenuate; also recorded: antagonize | – | still inhibited | modestly diminished
phosphatidylinositol [PI] | significantly attenuated | markedly attenuate; also recorded: antagonize | – | still inhibited | modestly diminished
